# Experimental data published in US20240182531A1, “KV1.3 Blockers” (priority 2021, published 2024).
# Where a SMILES comes first, the peptide text is derived from it. Bridges are numbered along the chain shown (N, C = ends). [ ]: non-standard residue; d: D form. Phe(4-NH2) = Nc1ccc(C[C@H](N)C(=O)O)cc1; Nle = CCCC[C@H](N)C(=O)O
# What was measured:
# human Kv1.1 = target: T1, human Kv1.1 (Homo sapiens, UniProt Q09470); test: cell-based; settings: ratio of patch clamp IC50 values
# T1 construct: expressed in transfected cells; host or cells: CHO
# T1 sequence (Q09470 whole entry): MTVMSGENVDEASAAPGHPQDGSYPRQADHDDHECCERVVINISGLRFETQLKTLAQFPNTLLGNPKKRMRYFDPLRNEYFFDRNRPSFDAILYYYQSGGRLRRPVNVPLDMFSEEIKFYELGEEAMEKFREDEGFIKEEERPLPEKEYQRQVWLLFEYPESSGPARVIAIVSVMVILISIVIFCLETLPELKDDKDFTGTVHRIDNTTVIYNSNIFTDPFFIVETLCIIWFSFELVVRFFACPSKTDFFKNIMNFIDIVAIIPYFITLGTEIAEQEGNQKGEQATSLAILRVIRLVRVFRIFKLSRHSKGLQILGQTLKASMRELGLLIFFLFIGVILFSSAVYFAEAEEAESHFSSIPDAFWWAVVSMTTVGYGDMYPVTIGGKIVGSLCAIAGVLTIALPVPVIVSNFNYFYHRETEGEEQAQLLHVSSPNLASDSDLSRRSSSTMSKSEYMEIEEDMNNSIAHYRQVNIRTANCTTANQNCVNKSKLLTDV
# human Kv1.2 = target: T2, human Kv1.2 (Homo sapiens, UniProt P16389); test: cell-based; settings: ratio of patch clamp IC50 values
# T2 construct: expressed in transfected cells; host or cells: CHO
# T2 sequence (P16389 whole entry): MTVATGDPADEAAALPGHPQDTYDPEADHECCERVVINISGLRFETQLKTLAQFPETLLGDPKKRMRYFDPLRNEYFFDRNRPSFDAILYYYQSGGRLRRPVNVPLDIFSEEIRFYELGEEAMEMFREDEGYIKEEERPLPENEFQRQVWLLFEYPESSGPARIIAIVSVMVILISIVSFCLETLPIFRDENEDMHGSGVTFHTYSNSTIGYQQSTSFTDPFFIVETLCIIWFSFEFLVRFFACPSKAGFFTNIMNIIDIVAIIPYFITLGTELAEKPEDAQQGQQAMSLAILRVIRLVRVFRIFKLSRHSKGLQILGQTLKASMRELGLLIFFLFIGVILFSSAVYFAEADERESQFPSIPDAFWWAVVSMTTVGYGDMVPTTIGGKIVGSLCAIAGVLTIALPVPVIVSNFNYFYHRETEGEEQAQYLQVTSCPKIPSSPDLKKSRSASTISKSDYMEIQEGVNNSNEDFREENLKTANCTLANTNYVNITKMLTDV
# human Kv1.6 = target: T3, human Kv1.6 (Homo sapiens, UniProt P17658); test: cell-based; settings: ratio of patch clamp IC50 values
# T3 construct: expressed in transfected cells; host or cells: CHO
# T3 sequence (P17658 whole entry): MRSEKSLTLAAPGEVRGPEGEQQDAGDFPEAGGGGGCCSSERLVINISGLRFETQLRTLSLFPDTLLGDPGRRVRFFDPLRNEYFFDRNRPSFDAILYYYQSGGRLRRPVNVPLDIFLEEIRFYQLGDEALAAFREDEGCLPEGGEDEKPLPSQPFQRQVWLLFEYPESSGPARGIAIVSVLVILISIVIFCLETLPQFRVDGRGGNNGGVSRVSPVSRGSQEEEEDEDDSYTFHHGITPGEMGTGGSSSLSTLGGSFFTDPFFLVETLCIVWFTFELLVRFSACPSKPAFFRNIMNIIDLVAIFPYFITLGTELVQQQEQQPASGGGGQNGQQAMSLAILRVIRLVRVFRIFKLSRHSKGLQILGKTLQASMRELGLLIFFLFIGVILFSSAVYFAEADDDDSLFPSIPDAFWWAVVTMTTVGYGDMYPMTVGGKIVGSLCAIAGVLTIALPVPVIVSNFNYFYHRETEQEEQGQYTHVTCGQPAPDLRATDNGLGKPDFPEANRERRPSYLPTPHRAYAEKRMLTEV
# Rat whole blood = Rat whole blood (Rattus norvegicus, UniProt P15384); type: cell-based; settings: IL-17A release, thapsigargin, 24 Hr, at least 2 replicates
# Rat whole blood, sequence (P15384 whole entry): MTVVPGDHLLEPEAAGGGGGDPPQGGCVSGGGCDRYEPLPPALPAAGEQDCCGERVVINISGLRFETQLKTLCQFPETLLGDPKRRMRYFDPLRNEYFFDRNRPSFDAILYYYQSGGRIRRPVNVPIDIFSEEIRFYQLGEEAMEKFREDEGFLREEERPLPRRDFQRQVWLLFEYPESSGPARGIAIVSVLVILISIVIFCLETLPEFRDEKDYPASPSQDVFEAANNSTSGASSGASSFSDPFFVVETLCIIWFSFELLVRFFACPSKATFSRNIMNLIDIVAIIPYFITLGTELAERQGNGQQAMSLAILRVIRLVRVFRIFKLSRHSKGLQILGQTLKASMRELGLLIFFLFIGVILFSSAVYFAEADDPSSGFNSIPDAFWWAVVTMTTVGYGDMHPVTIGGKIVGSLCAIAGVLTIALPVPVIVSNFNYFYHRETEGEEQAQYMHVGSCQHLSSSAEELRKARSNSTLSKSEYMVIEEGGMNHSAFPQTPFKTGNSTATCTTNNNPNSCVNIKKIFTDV
SMILES,Selectivity ratio Kv1.1/Kv1.3 (human Kv1.1),Selectivity ratio Kv1.2/Kv1.3 (human Kv1.2),Selectivity ratio Kv1.6/Kv1.3 (human Kv1.6),IC50 (Rat whole blood)
"CCCC[C@H](NC(=O)[C@H](CC(=O)O)NC(=O)[C@H](CCCC)NC(=O)[C@@H](N)CO)C(=O)N[C@@H](CCCNC(=N)N)C(=O)N[C@H]1CSSC[C@@H]2NC(=O)[C@H](CCCCN)NC(=O)CNC(=O)[C@H](Cc3ccccc3)NC(=O)[C@H]([C@@H](C)CC)NC(=O)[C@H](CO)NC(=O)CNC(=O)[C@H]([C@@H](C)CC)NC(=O)[C@H](C)NC(=O)[C@H](CCCCN)NC(=O)[C@H](CC(C)C)NC(=O)[C@@H]3CSSC[C@@H](C(=O)N[C@@H](Cc4ccc(N)cc4)C(=O)N4CCC[C@H]4C(=O)N[C@@H](CCCNC(=N)N)C(N)=O)NC(=O)[C@H](CCCCN)NC(=O)[C@H](CSSC[C@H](NC(=O)[C@H](CCC(=O)O)NC(=O)[C@H](C(C)C)NC(=O)[C@H](CO)NC(=O)[C@H](C)NC(=O)[C@H](CO)NC1=O)C(=O)N[C@@H](CCCCN)C(=O)N[C@@H](CCC(N)=O)C(=O)N[C@@H](CCCCN)C(=O)N3)NC(=O)[C@H](CCCCN)NC(=O)[C@H](CCCCN)NC(=O)[C@H](CC(N)=O)NC(=O)[C@H](CCSC)NC2=O [compound 70] (H-S[Nle]D[Nle]RCSASVECKQKCLKAIGSIFGKCMNKKCKC[Phe(4-NH2)]PR-NH2; disulfide 6-27, 12-32, 16-34)",>12200,1720,>12200,0.79 nM
"CCCC[C@@H]1NC(=O)[C@@H]2CSSC[C@H](NC(C)=O)C(=O)N[C@@H](CO)C(=O)N[C@@H](C)C(=O)N[C@@H](CO)C(=O)N[C@@H](C(C)C)C(=O)N[C@@H](CCC(=O)O)C(=O)N[C@H]3CSSC[C@H](NC(=O)[C@H](CCCCN)NC(=O)[C@H](CCCCN)NC(=O)[C@H](CC(N)=O)NC1=O)C(=O)N[C@@H](CCCCN)C(=O)N[C@H](C(=O)N[C@@H](Cc1ccc(O)cc1)C(=O)N1CCC[C@H]1C(=O)N[C@@H](CCCNC(=N)N)C(N)=O)CSSC[C@H](NC(=O)[C@H](CCCCN)NC(=O)[C@H](CCC(N)=O)NC(=O)[C@H](CCCCN)NC3=O)C(=O)N[C@@H](CC(C)C)C(=O)N[C@@H](CCCCN)C(=O)N[C@@H](C)C(=O)N[C@@H]([C@@H](C)CC)C(=O)NCC(=O)N[C@@H](CO)C(=O)N[C@@H]([C@@H](C)CC)C(=O)N[C@@H](Cc1ccccc1)C(=O)NCC(=O)N[C@@H](CCCCN)C(=O)N2 [compound 99] (Ac-CSASVECKQKCLKAIGSIFGKC[Nle]NKKCKCYPR-NH2; disulfide 1-22, 7-27, 11-29)",>12400,1591,>12400,0.88 nM
"CC[C@H](C)[C@@H]1NC(=O)[C@H](C)NC(=O)[C@H](CCCCN)NC(=O)[C@H](CC(C)C)NC(=O)[C@@H]2CSSC[C@@H](C(=O)N[C@@H](Cc3ccc(O)cc3)C(=O)N3CCC[C@H]3C(=O)N[C@@H](CCCNC(=N)N)C(N)=O)NC(=O)[C@H](CCCCN)NC(=O)[C@@H]3CSSC[C@H](NC(=O)[C@H](CCC(N)=O)NC(=O)[C@H](C(C)C)NC(=O)[C@H](CO)NC(=O)[C@H](C)NC(=O)[C@H](CO)NC(=O)[C@@H](NC(=O)[C@H](CCCNC(=N)N)NC(=O)[C@H](CCSC)NC(=O)[C@H](CC(=O)O)NC(=O)[C@H](CCSC)NC(=O)[C@@H](N)CC(N)=O)CSSC[C@H](NC(=O)[C@H](CCCCN)NC(=O)CNC(=O)[C@H](Cc4ccccc4)NC(=O)[C@H]([C@@H](C)CC)NC(=O)[C@H](CO)NC(=O)CNC1=O)C(=O)N[C@@H](CCSC)C(=O)N[C@@H](CC(N)=O)C(=O)N[C@@H](CCCCN)C(=O)N[C@@H](CCCCN)C(=O)N3)C(=O)N[C@@H](CCCCN)C(=O)N[C@@H](CCC(N)=O)C(=O)N[C@@H](CCCCN)C(=O)N2 [compound 32] (H-NMDMRCSASVQCKQKCLKAIGSIFGKCMNKKCKCYPR-NH2; disulfide 6-27, 12-32, 16-34)",>15200,83,1272,0.53 nM
"CCCC[C@@H]1NC(=O)[C@@H]2CSSC[C@H](N)C(=O)N[C@@H](CO)C(=O)N[C@@H](C)C(=O)N[C@@H](CO)C(=O)N[C@@H](C(C)C)C(=O)N[C@@H](CCC(=O)O)C(=O)N[C@H]3CSSC[C@H](NC(=O)[C@H](CCCCN)NC(=O)[C@H](CCCCN)NC(=O)[C@H](CC(N)=O)NC1=O)C(=O)N[C@@H](CCCCN)C(=O)N[C@H](C(=O)N[C@@H](Cc1ccc(O)cc1)C(=O)N1CCC[C@H]1C(=O)N[C@@H](CCCNC(=N)N)C(N)=O)CSSC[C@H](NC(=O)[C@H](CCCCN)NC(=O)[C@H](CCC(N)=O)NC(=O)[C@H](CCCCN)NC3=O)C(=O)N[C@@H](CC(C)C)C(=O)N[C@@H](CCCCN)C(=O)N[C@@H](C)C(=O)N[C@@H]([C@@H](C)CC)C(=O)NCC(=O)N[C@@H](CO)C(=O)N[C@@H]([C@@H](C)CC)C(=O)N[C@@H](Cc1ccccc1)C(=O)NCC(=O)N[C@@H](CCCCN)C(=O)N2 [compound 98] (H-CSASVECKQKCLKAIGSIFGKC[Nle]NKKCKCYPR-NH2; disulfide 1-22, 7-27, 11-29)",>7000,>7000,>7000,1.6 nM
"CCCC[C@@H]1NC(=O)[C@@H]2CSSC[C@H](NC(=O)[C@H](CCCNC(=N)N)NC(=O)[C@H](CC(C)C)NC(C)=O)C(=O)N[C@@H](CO)C(=O)N[C@@H](C)C(=O)N[C@@H](CO)C(=O)N[C@@H](C(C)C)C(=O)N[C@@H](CCC(=O)O)C(=O)N[C@H]3CSSC[C@H](NC(=O)[C@H](CCCCN)NC(=O)[C@H](CCCCN)NC(=O)[C@H](CC(N)=O)NC1=O)C(=O)N[C@@H](CCCCN)C(=O)N[C@H](C(=O)N[C@@H](Cc1ccc(O)cc1)C(=O)N1CCC[C@H]1C(=O)N[C@@H](CCCNC(=N)N)C(N)=O)CSSC[C@H](NC(=O)[C@H](CCCCN)NC(=O)[C@H](CCC(N)=O)NC(=O)[C@H](CCCCN)NC3=O)C(=O)N[C@@H](CC(C)C)C(=O)N[C@@H](CCCCN)C(=O)N[C@@H](C)C(=O)N[C@@H]([C@@H](C)CC)C(=O)NCC(=O)N[C@@H](CO)C(=O)N[C@@H]([C@@H](C)CC)C(=O)N[C@@H](Cc1ccccc1)C(=O)NCC(=O)N[C@@H](CCCCN)C(=O)N2 [compound 102] (Ac-LRCSASVECKQKCLKAIGSIFGKC[Nle]NKKCKCYPR-NH2; disulfide 3-24, 9-29, 13-31)",>8700,352,7096,0.37 nM
"CC[C@H](C)[C@@H]1NC(=O)[C@H](C)NC(=O)[C@H](CCCCN)NC(=O)[C@H](CC(C)C)NC(=O)[C@@H]2CSSC[C@@H](C(=O)N[C@@H](Cc3ccc(O)cc3)C(=O)N3CCC[C@H]3C(=O)N[C@@H](CCCNC(=N)N)C(N)=O)NC(=O)[C@H](Cc3c[nH]cn3)NC(=O)[C@@H]3CSSC[C@H](NC(=O)[C@H](CCC(=O)O)NC(=O)[C@H](C(C)C)NC(=O)[C@H](CO)NC(=O)[C@H](C)NC(=O)[C@H](CO)NC(=O)[C@@H](NC(=O)[C@H](CCCNC(=N)N)NC(=O)[C@H](CCSC)NC(=O)[C@H](CC(=O)O)NC(=O)[C@H](CCSC)NC(=O)[C@@H](N)CC(N)=O)CSSC[C@H](NC(=O)[C@H](CCCCN)NC(=O)CNC(=O)[C@H](Cc4ccccc4)NC(=O)[C@H]([C@@H](C)CC)NC(=O)[C@H](CO)NC(=O)CNC1=O)C(=O)N[C@@H](CCSC)C(=O)N[C@@H](CC(N)=O)C(=O)N[C@@H](CCCCN)C(=O)N[C@@H](CCCCN)C(=O)N3)C(=O)N[C@@H](CCCCN)C(=O)N[C@@H](CCC(N)=O)C(=O)N[C@@H](CCCCN)C(=O)N2 [compound 41] (H-NMDMRCSASVECKQKCLKAIGSIFGKCMNKKCHCYPR-NH2; disulfide 6-27, 12-32, 16-34)",>16100,1816,>16100,0.77 nM
